Measurements taken from US7288544B2, “Pyrimidine compounds useful as N-type calcium channel antagonists” (Ajinomoto Co., Inc., priority 2000, dated 2007).
Like-named read-outs stand apart in the source and are kept apart here.

Assays:
N-type calcium channels = biological target: T1, N-type calcium channels (Homo sapiens, UniProt Q00975); assay: Antagonistic activity on N-type calcium channels (fluorescence dye method, IMR-32 cells); format: cell-based; conditions: for inhibition at 10 µM: 10 μM test compound, read-out: N-type inhibition (inhibition rate (%) at 10 μM); for IC50: 60 mM KCl stimulation, 1 μM Nifedipine, Table 20, read-out: N-type inhibition pIC50 (converted)
T1 construct: Human neuroblastoma cells IMR-32 were obtained from ATCC; host or cells: IMR-32 human neuroblastoma cells, differentiated with dibutyl cAMP and 5-bromodeoxyuridine
T1 sequence (Q00975 whole entry): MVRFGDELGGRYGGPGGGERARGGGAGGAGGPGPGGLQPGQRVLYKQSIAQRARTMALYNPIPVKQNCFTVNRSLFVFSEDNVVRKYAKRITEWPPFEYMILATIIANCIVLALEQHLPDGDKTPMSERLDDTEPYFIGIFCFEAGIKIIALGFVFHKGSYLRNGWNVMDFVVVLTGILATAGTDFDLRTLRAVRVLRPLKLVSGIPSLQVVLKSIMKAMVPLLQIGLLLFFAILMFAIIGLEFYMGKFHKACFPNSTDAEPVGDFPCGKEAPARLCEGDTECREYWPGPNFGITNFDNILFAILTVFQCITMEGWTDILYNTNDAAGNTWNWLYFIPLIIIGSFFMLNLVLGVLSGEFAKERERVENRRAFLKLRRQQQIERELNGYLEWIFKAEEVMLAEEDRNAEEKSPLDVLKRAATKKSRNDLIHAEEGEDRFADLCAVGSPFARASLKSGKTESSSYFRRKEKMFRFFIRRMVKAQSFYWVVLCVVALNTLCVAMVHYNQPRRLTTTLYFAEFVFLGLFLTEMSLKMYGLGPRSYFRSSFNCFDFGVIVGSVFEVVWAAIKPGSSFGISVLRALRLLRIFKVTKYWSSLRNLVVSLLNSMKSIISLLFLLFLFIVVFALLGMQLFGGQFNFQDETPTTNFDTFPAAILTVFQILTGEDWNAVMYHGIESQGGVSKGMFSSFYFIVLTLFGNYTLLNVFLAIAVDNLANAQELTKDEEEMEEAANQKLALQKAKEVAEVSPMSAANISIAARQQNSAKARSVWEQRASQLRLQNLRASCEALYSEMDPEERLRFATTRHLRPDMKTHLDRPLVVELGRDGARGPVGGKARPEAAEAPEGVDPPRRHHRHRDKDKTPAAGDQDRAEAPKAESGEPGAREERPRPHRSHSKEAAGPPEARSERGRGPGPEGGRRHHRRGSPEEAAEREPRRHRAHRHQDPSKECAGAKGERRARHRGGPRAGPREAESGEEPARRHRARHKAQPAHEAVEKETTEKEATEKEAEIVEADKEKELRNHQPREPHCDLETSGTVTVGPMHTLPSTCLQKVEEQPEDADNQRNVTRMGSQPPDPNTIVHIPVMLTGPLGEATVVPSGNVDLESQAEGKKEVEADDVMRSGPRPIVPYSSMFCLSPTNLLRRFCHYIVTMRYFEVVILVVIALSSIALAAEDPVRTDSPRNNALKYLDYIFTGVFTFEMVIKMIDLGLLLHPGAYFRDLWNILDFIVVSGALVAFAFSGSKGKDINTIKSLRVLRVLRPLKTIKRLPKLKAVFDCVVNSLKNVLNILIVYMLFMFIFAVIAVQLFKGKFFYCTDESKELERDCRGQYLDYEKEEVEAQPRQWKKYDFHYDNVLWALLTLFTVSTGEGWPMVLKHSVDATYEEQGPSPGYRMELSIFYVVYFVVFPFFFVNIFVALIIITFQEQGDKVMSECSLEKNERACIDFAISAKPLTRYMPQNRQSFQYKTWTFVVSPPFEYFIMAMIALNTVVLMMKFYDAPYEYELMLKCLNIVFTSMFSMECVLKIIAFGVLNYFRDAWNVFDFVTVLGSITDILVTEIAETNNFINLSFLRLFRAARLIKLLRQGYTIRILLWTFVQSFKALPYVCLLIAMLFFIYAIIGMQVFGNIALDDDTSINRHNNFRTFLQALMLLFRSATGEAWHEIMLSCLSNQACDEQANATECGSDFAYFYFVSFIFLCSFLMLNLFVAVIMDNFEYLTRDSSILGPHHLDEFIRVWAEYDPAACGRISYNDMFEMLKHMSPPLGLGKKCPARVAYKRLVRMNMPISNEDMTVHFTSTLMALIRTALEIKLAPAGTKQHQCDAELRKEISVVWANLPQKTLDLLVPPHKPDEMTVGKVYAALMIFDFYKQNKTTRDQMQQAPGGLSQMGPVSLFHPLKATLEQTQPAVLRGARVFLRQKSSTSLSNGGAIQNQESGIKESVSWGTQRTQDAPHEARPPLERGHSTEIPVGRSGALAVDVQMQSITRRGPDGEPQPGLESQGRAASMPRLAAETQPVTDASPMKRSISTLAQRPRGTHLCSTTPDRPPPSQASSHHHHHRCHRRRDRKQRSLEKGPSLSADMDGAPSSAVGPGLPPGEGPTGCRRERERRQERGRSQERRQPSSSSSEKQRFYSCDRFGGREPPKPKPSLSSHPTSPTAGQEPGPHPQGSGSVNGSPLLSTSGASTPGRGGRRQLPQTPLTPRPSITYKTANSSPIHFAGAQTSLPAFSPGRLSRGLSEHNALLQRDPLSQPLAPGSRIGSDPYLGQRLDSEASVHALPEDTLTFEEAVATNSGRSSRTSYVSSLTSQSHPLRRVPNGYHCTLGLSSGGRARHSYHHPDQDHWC
T1 sequence (Q02641 whole entry partner): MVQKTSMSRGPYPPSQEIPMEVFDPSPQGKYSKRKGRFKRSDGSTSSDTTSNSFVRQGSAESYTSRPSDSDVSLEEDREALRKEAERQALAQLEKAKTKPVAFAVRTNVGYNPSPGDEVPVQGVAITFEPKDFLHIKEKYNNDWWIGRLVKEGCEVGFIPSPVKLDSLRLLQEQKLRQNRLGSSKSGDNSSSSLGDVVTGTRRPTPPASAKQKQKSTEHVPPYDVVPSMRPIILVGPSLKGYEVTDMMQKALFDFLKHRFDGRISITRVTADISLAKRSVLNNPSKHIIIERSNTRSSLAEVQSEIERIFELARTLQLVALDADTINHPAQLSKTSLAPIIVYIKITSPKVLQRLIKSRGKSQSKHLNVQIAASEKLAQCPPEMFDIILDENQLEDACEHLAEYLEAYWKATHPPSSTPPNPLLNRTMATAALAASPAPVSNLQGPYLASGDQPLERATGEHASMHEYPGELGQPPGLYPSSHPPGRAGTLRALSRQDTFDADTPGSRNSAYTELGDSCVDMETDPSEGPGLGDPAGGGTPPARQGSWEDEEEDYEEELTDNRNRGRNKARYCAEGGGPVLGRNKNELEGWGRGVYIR
T1 sequence (P54289 25-956 partner limits assumed): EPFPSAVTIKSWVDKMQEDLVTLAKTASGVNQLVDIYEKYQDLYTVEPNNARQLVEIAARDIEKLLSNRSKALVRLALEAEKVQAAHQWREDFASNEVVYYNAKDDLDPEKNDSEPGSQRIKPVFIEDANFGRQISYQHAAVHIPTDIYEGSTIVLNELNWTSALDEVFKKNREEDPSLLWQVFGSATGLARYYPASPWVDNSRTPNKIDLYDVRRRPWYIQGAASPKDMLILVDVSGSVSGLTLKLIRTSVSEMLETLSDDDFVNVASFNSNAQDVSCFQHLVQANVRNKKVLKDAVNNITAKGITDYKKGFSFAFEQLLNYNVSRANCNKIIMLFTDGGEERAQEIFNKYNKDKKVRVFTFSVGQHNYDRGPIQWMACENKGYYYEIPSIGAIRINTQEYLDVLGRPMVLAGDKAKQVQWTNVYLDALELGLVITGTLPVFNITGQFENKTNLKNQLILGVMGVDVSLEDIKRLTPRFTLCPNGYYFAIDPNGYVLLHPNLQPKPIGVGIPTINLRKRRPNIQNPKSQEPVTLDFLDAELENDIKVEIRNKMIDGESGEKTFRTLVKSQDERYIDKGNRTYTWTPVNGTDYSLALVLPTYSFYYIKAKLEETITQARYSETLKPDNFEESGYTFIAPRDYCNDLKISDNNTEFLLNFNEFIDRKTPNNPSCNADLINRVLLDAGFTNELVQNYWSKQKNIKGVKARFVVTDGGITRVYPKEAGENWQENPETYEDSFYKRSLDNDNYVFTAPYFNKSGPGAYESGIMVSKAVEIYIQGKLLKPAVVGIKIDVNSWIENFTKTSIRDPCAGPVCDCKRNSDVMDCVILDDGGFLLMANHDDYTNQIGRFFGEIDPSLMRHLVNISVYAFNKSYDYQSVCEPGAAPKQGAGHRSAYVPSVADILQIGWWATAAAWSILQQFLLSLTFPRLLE
T1 sequence (P54289 957-1103 partner limits assumed): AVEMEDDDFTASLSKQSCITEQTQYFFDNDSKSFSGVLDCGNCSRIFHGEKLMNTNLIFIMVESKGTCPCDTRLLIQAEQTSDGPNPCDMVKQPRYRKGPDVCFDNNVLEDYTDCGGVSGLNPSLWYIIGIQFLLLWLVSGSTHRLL
Protocol: (Test Example) Antagonistic Activity on N-Type Calcium Channels (Fluorescence Dye Method):
Human neuroblastoma cells IMR-32 were obtained from ATCC (American Type Culture Collection). The medium used was a phenol red-free Eagle minimum essential medium containing earle's salts (GIBCO) supplemented with 2 mM of L-glutamine (GIBCO), 1 mM of sodium pyruvate (pH 6.5) (GIBCO), antibiotic/antimicotic mixture (GIBCO) and 10% fetal calf serum (Cell Culture Technologies). Three ml of 1×10^5 cells/ml IMR-32 were spread on a 35 mm diameter glass dish (Iwaki Glass Co., Ltd.) which was treated with poly-L-lysin (SIGMA) and collagen (COLLAGEN VITROGEN 100, Collagen Co.). One day after cultivation, 1 mM (final concentration) of dibutyl cAMP and 2.5 μM (final concentration) of 5-bromodeoxyuridine (SIGMA) were added. After the culture for additional 10 to 14 days, the cells were subjected to the activity determination.
The medium for IMR-32 cells thus prepared was replaced with 1 ml of Phenol Red-free Eagle minimum essential medium (GIBCO) containing 2.5 μM fura-2/AM (Dojin Kagaku, Co.) and earle's salts supplement, and the incubation was conducted at 37° C. for 30 minutes. Then the medium was replaced with a recording medium (20 mM of HEPES-KOH, 115 mM of NaCl, 5.4 mM of KCl, 0.8 mM of MgCl2, 1.8 mM of CaCl2 and 13.8 mM of D-glucose). Antagonistic activity on N-type calcium channels was determined and analyzed using a fluorescence microscope (Nikon Corporation) and an image analysis device ARGUS 50 (Hamamatsu Photonics). In particular, a recording medium (20 mM of HEPES-KOH, 115 mM of NaCl, 5.4 mM of KCl, 0.8 mM of MgCl2, 1.8 mM of CaCl2 and 13.8 mM of D-glucose) containing 1 μM of Nifedipine was given to the cells by reflux by a Y-tube method for 2 minutes. Then a stimulating agent containing 60 mM of potassium chloride was rapidly given by the Y-tube method. The calcium concentration change in the cells was examined in terms of N-type calcium channel activity. Stimulating agents containing 60 mM of potassium chloride and 0.1, 1 or 10 μM of test compound were successively and rapidly given to the same cells by the Y-tube method to determine the change in calcium concentration in the cells on this occasion. Antagonistic activity on N-type calcium channel was thus calculated from the inhibition rates.
The same procedure as that of the above-described tests of the N-type calcium channel antagonistic activity of the compounds obtained in the Examples was repeated except for the following changes: stimulating agents containing 60 mM of potassium chloride and 0.1, 1 or 10 μM of test compound were successively and rapidly given by the Y-tube method. A change in calcium concentration in the cells was determined.

L-type calcium channels = biological target: T2, L-type calcium channels (Rattus norvegicus, UniProt P22002); assay: Antagonistic activity on L-type calcium channels (relaxation of KCl-induced contraction of isolated rat thoracic aorta); conditions: isolated Wistar rat thoracic aorta; for L-type inhibition pIC50: Table 21
T2 construct: The thoracic aorta isolated from a Wistar rat was cut to obtain ring-shaped samples; from tissue; host or cells: isolated Wistar rat thoracic aorta rings, endothelium removed
Protocol: (Test Example) Antagonistic Activity on L-Type Calcium Channels:
The activity of the dihydropyrimidine derivatives of the present invention to inhibit L-type calcium channels was determined by the following method in which the relaxation reaction on the KCl-induced contraction of isolated rat thoracic aorta was employed.
1) Method of Preparation of Rat Thoracic Aorta:
The thoracic aorta isolated from a Wistar rat was cut to obtain ring-shaped samples having a width of about 3 mm. The endothelial cells of the samples were mechanically removed. The samples were then suspended in a strain gage in Tyrode's solution (158.3 mM of NaCl, 4.0 mM of KCl, 1.05 mM of MgCl2, 0.42 mM of NaH2PO4, 10 mM of NaHCO, 2 mM of CaCl2 and 5 mM of glucose) in which a gaseous mixture of O2 (95%) and CO2 (5%) was introduced. A static tension of 2 g was applied hereto. The tension of the blood vessel was amplified with a transducer and a tension amplifier (EF-601G; Nihon Koden Corporation) and recorded with a multi-pen recorder (Rikadenki Kogyo Co., Ltd.). The experiments were conducted at 37° C.
2) Measurment of Relaxation Response Against KCl-Induced Contraction:
After the tension had been stabilized, the solution in the sample tank was replaced with High K^+ Tyrode's solution (112.3 mM of NaCl, 50 mM of KCl, 1.05 mM of MgCl2, 0.42 mM of NaH2PO4, 10 mM of NaHCO3, 2 mM of CaCl2 and 5 mM of glucose) to conduct the contraction reaction. Thirty minutes after, the solution in the sample tank was replaced with the normal Tyrode's solution. The solution in the sample tank was again replaced with the High K^+ Tyrode's solution and the contraction reaction was observed. After attaining the maximum contraction reaction, the test compound was cumulatively added at intervals of […] to attain concentrations of 10^−9, 10^−8, 10^−7 and 10^−6 M. The inhibitory rate of the test compound on the maximum contraction reaction was employed as the index of the inhibition activity on L-type calcium channels.

SD rats = assay: Analgesic action in the formalin test; format: in vivo, rat; conditions: 3 mg/kg p.o. 3 hours before formalin injection, counted for 60 minutes, average±standard error, control group 116 ± 8
Protocol: (Test Example) Determination of Analgesic Action (Analgesic Action in the Formalin Test) 1) Preparation of Solution of a Test Compound and its Administration
The compound was weighed and ground in a mortar. While grinding the powder, 0.5% tragacanth solution was added thereto so that a suspension was prepared to have a concentration of 0.6 mg/ml.
Three hours before the formalin injection, the compound suspension was orally administered to SD rats at a volume of 5 ml/kg (dosage; 3 mg/kg, p.o.). In the control group, 0.5% tragacanth solution was orally administered to SD rats at a volume of 5 ml/kg 3 hours before formalin injection.
2) Determination of Analgesic Action in the Formalin Test
The SD rats to which the compound was administered were introduced to a capsule. They were settled under halothane (2 to 4% in 3 L/min of oxygen gas flow rate) and 100 μl of 5% formalin solution was injected subcutaneously to their dorsal surface of left legs. After injection, determination was started when the rats came out from the anesthetic state (based on recovery of righting reflex). The number of flinching under the influence of formalin injection was counted for 60 minutes (Reference: J. Neurosci. 14: 4882-4890 (1994)). The results are shown as “average±standard error” in Table 22.

[1] = Table 21, read-out: L-type inhibition pIC50 (converted)
[2] = Table 20, read-out: L-type inhibition pIC50 (converted)

Row | inhibition at 10 µM (N-type calcium channels) [%] | IC50 (L-type calcium channels; [1]) [nM] | IC50 (N-type calcium channels) [nM] | IC50 (L-type calcium channels; [2]) [nM] | L-type inhibition pIC50 (L-type calcium channels) | Structure (SMILES) | Flinching (number) (SD rats)
1 | 56 |  | 1580 | 1000 | 6.0 | Cc1nc(C)c(C(=O)N2CCNCC2)c(-c2cccc(Cl)c2)c1C(=O)OCCC(c1ccccc1)c1ccccc1 [Example 122, 4-(3-chlorophenyl)-2,6-dimethyl-5-(piperazine-1-carbonyl)nicotinic acid (3,3-diphenylpropyl) ester] | 61 ± 16
2 | 70 | 1260 |  |  |  | Cc1nc(C)c(C(=O)N2CCN(C)CC2)c(-c2cccc(Cl)c2)c1C(=O)OCCC(c1ccccc1)c1ccccc1 [Example 125, 4-(3-chlorophenyl)-2,6-dimethyl-5-(4-methylpiperazine-1-carbonyl)nicotinic acid (3,3-diphenylpropyl) ester] | 62 ± 25

The next lines start with the compound.

Row | Structure (SMILES) | inhibition at 10 µM (N-type calcium channels) [%] | IC50 (L-type calcium channels; [1]) [nM] | IC50 (N-type calcium channels) [nM] | IC50 (L-type calcium channels; [2]) [nM] | L-type inhibition pIC50 (L-type calcium channels) | Flinching (number) (SD rats)
3 | CSc1nc(C)c(C(=O)NCCCc2ccccc2)c(-c2ccc(C)cc2C)n1 [Example 93, 4-(2,4-dimethylphenyl)-6-methyl-2-(methylthio)-N-(3-phenylpropyl)-5-pyrimidinecarboxamide] | 63 | 5010 |  |  |  | 39 ± 11
4 | CSc1nc(C)c(C(=O)NC/C=C/c2ccccc2)c(-c2cccc(Cl)c2)n1 [Example 1, 4-(3-chlorophenyl)-6-methyl-2-(methylthio)-N-(3-phenyl-2-propen-1-yl)-5-pyrimidinecarboxamide] | 52 |  | 1580 | 2510 | 5.6 | 
5 | CSc1nc(C)c(C(=O)NCCCc2ccccc2)c(-c2cccc(Cl)c2)n1 [Example 16, 4-(3-chlorophenyl)-6-methyl-2-(methylthio)-N-(3-phenylpropyl)-5-pyrimidinecarboxamide] | 58 |  | 2000 | 3160 | 5.5 | 
6 | CCc1nc(C)c(C(=O)NCCCc2ccccc2)c(-c2cc(Cl)cc(Cl)c2)n1 [Example 103, 2-ethyl-4-(3,5-dichlorophenyl)-6-methyl-N-(3-phenylpropyl)-5-pyrimidinecarboxamide] | 74 | 3980 |  |  |  | 
7 | CSc1nc(C)c(C(=O)NCCCc2ccccc2)c(-c2c(Cl)cccc2Cl)n1 [Example 110, 4-(2,6-dichlorophenyl)-6-methyl-2-(methylthio)-N-(3-phenylpropyl)-5-pyrimidinecarboxamide] | 77 | 2510 |  |  |  | 
